Data as given in the supplement of paper PMC11451515.

Legend:
Assay in all cases: AUC of viability dose-response curve (% viability x log10 dose units); higher = less sensitive
Details in all cases: 48 h
NOMO1 = tested on: NOMO1
Method in brief: (§1)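 Area under the curve was integrated by trapezoidal rule from a log-logistic fit of normalised viability, with curves exceeding full viability scaled and quality-control failures removed. The fit had four parameters over log10 doses. Viability came from CellTiter-Glo One luminescence, normalised per plate to DMSO and cell-free wells, after leukemia cells adapted to each medium (500 or 1000 cells/well, 1536-well plates) were exposed to library compounds in DMSO for 48 h at 37°C. The 11 threefold doses ran from 47 μM to 0.79 nM.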

P12-Ichikawa = tested on: P12-Ichikawa
Method in brief: as §1

SEM cells = tested on: SEM cells
Method in brief: as §1

[1] = RPMI 5 mM glucose + 10% dialyzed FBS

Row | SMILES | AUC of viability dose-response curve (NOMO1; HPLM + 10% dialyzed FBS) | AUC of viability dose-response curve (NOMO1; RPMI 5 mM glucose + 10% FBS) | AUC of viability dose-response curve (NOMO1; [1]) | AUC of viability dose-response curve (P12-Ichikawa; HPLM + 10% dialyzed FBS) | AUC of viability dose-response curve (P12-Ichikawa; RPMI 5 mM glucose + 10% FBS) | AUC of viability dose-response curve (P12-Ichikawa; [1]) | AUC of viability dose-response curve (SEM cells; HPLM + 10% dialyzed FBS) | AUC of viability dose-response curve (SEM cells; RPMI 5 mM glucose + 10% FBS) | AUC of viability dose-response curve (SEM cells; [1])
1 | OC[C@H]1OC(OC2=CC3=C(C(=C2)O)C(=O)\C(=C/O3)C4=CC=C(O)C=C4)[C@H](O)[C@@H](O)[C@@H]1O (some centres not stated) | 391 | 407 | 372 | 405 | 401 | 391 | 408 | 454 | 451
2 | CC(C)(O)C(=O)Nc1ccc([N+](=O)[O-])c(C(F)(F)F)c1 | 368 | 355 | 371 | 404 | 409 | 438 | 465 | 449 | 448
3 | O=C(NCC1CCOCC1)c1cnc(Nc2ccc(Cl)cc2Cl)nc1C(F)(F)F | 439 | 456 | 456 | 450 | 472 | 465 | 425 | 461 | 448
4 | C[N]1C=C(C=N1)C2=CC=C3N=CC\4=C(N(C(=O)\C=C4)C5=CC6=C(CCN6C(=O)C=C)C=C5)C3=C2 | 359 | 396 | 375 | 404 | 391 | 393 | 359 | 360 | 353
5 | Oc1ccc([C@@H]2Oc3ccc(O)cc3[C@@H]3CCC[C@@H]32)cc1 | 412 | 423 | 406 | 394 | 372 | 349 |  |  | 
6 | CCOC(=O)[C@H]1O[C@@H]1C(=O)N[C@@H](CC(C)C)C(=O)NCCC(C)C | 448 | 445 | 456 | 462 | 461 | 469 | 462 | 475 | 462
7 | N#CC[C@H](C1CCCC1)n1cc(-c2ncnc3[nH]ccc23)cn1 | 384 | 374 | 407 | 408 | 401 | 372 | 405 | 396 | 402
8 | COc1cc2c(Nc3ccc(Cl)c(Cl)c3F)ncnc2cc1OC[C@@H]1C[C@@H]2CN(C)C[C@@H]2C1 | 421 | 450 | 447 | 444 | 453 | 444 | 384 | 443 | 438
9 | CC(C)Cn1cnc2c(N)nc3ccccc3c21 | 450 | 466 | 448 | 442 | 451 | 463 | 459 | 452 | 455
10 | N#Cc1ccnc(N2C(=O)CC[C@H]2C(=O)N(c2cncc(F)c2)[C@H](C(=O)NC2CC(F)(F)C2)c2ccccc2Cl)c1 | 348 | 356 | 380 | 321 | 333 | 361 | 359 | 334 | 379
11 | O=[S+]([O-])(NCCNC/C=C/c1ccc(Br)cc1)c1cccc2cnccc12 | 452 | 446 | 425 | 462 | 460 | 458 | 377 | 418 | 354
12 | COc1cc2ncnc(Nc3cccc(Cl)c3)c2cc1OC | 286 | 370 | 343 | 309 | 315 | 305 | 287 | 242 | 274
13 | Cc1nc(N)ncc1-c1nc(N2CCOCC2)c2sc(C(C)(C)O)cc2n1 | 204 | 264 | 285 | 213 | 279 | 276 | 249 | 163 | 220
14 | COC(=O)Nc1nc2ccc([S+]([O-])c3ccccc3)cc2[nH]1 (configuration not stated) | 460 | 468 | 466 | 441 | 454 | 461 | 417 | 438 | 441
15 | OCCN(CCO)c1nc(N2CCCCC2)c2nc(N(CCO)CCO)nc(N3CCCCC3)c2n1 | 459 | 438 | 465 | 459 | 467 | 463 | 454 | 457 | 461
16 | O=C(O)Cc1cccc(OCCCN(Cc2cccc(C(F)(F)F)c2Cl)CC(c2ccccc2)c2ccccc2)c1 | 432 | 461 | 465 | 460 | 442 | 450 | 444 | 437 | 456
17 | CS[C@H]1SC[C@@H]2C(=O)N(C)[C@H](C(C)C)C(=O)OC[C@H](NC(=O)c3cnc4ccccc4n3)C(=O)N[C@H](C)C(=O)N(C)[C@H]1C(=O)N(C)[C@H](C(C)C)C(=O)OC[C@H](NC(=O)c1cnc3ccccc3n1)C(=O)N[C@H](C)C(=O)N2C | 140 | 142 | 141 | 176 | 148 | 140 |  |  | 
18 | COC(=O)C/1=C(C)/N/C(=C(\C1C2=CC(=CC=C2)[N+]([O-])=O)C(=O)OCCCN3CCC(CC3)(C4=CC=CC=C4)C5=CC=CC=C5)C (configuration not stated) | 439 | 441 | 464 | 453 | 429 | 445 | 458 | 439 | 441
19 | COc1ccc2[nH]cc(CCNC(C)=O)c2c1 | 474 | 429 | 462 | 451 | 458 | 444 | 472 | 469 | 446
20 | CCOC(=O)N[C@@H]1CC[C@@H]2[C@@H](C1)C[C@H]1C(=O)O[C@H](C)[C@H]1[C@H]2/C=C/c1ccc(-c2cccc(F)c2)cn1 | 466 | 467 | 468 | 472 | 464 | 466 | 473 | 458 | 461
21 | CCCCCN(CCC12CC3CC(CC(C3)C1)C2)C(=O)NCCCc1ccncc1 | 454 | 465 | 467 | 458 | 469 | 465 | 472 | 463 | 466
22 | NNc1nncc2ccccc12 | 472 | 461 | 466 | 470 | 452 | 463 | 436 | 454 | 438
23 | CC[C@H]1CN2CCc3cc(OC)c(OC)cc3[C@@H]2C[C@@H]1C[C@H]1NCCc2cc(OC)c(OC)cc21 | 305 | 300 | 305 | 289 | 279 | 300 | 193 | 214 | 240

Row | SMILES | AUC of viability dose-response curve (NOMO1; HPLM + 10% dialyzed FBS) | AUC of viability dose-response curve (NOMO1; RPMI 5 mM glucose + 10% FBS) | AUC of viability dose-response curve (NOMO1; [1]) | AUC of viability dose-response curve (P12-Ichikawa; HPLM + 10% dialyzed FBS) | AUC of viability dose-response curve (P12-Ichikawa; RPMI 5 mM glucose + 10% FBS) | AUC of viability dose-response curve (P12-Ichikawa; [1]) | AUC of viability dose-response curve (SEM cells; HPLM + 10% dialyzed FBS) | AUC of viability dose-response curve (SEM cells; RPMI 5 mM glucose + 10% FBS) | AUC of viability dose-response curve (SEM cells; [1])
24 | CC(C)(C)OC(=O)Nc1ccc(-c2cc(C(=O)NCCCCCCC(=O)NO)no2)cc1 | 379 | 346 | 361 | 333 | 297 | 276 | 343 | 333 | 288
25 | Clc1ccccc1C(c1ccccc1)(c1ccccc1)n1ccnc1 | 451 | 443 | 468 | 448 | 426 | 448 | 425 | 416 | 412
26 | COc1cc(OC)c(C(=O)CCCN2CCCC2)c(OC)c1 | 448 | 440 | 441 | 464 | 456 | 417 | 446 | 451 | 443
27 | NC(CO)C(=O)NNCc1ccc(O)c(O)c1O (configuration not stated) | 448 | 431 | 454 | 450 | 435 | 428 | 450 | 439 | 437
28 | CCC(C1CCC(C)C(O1)C(C)C(O)C(C)C(=O)C(CC)C2OC\3(O[C@]4(CC[C@@](C)(O4)C5CC[C@@](O)(CC)C(C)O5)C(O)\C=C3)C(C)CC2C)C([O-])=O (some centres not stated) |  |  |  | 426 | 403 | 382 |  |  | 
29 | N=C(N)Nc1ccc(C(=O)Oc2ccc3cc(C(=N)N)ccc3c2)cc1 | 446 | 406 | 396 | 437 | 443 | 404 | 419 | 392 | 441
30 | Cc1ccc(/C=N/NC(=O)c2ccccc2Oc2ccccc2)o1 | 456 | 418 | 457 | 452 | 432 | 410 | 452 | 468 | 388
31 | N#C/C(=C1/Nc2ccccc2S1)c1ccnc(OCc2ccc(CN3CCOCC3)cc2)n1 | 399 | 412 | 407 | 429 | 422 | 434 | 468 | 472 | 461
32 | Cc1ccc(-c2cc(C(F)(F)F)nn2-c2ccc([S+](N)(=O)[O-])cc2)cc1 | 451 | 468 | 463 | 471 | 463 | 468 | 464 | 460 | 470
33 | CN1CCN(CCCN2c3ccccc3Sc3ccc(Cl)cc32)CC1.O=C(O)/C=C\C(=O)O.O=C(O)/C=C\C(=O)O | 362 | 390 | 386 | 429 | 421 | 423 | 471 | 466 | 465
34 | CN(C)CCc1c[nH]c2ccc(C[S+](=O)([O-])N3CCCC3)cc12 | 459 | 468 | 460 | 471 | 466 | 466 | 453 | 427 | 433
35 | Nc1nc(N)c(N=O)c(OCC2CCCCC2)n1 | 381 | 379 | 380 | 395 | 372 | 371 | 340 | 354 | 370
36 | Nc1nc(NCCNc2ncc(-n3ccnc3)c(-c3ccc(Cl)cc3Cl)n2)ccc1[N+](=O)[O-] | 460 | 412 | 442 | 464 | 447 | 466 | 452 | 446 | 450
37 | Cc1cccc2c1CC[C@H](CN1CCC(c3c(Cl)cccc3Cl)CC1)C[C@@H]2O | 453 | 424 | 413 | 472 | 425 | 439 | 474 | 437 | 441
38 | CC(C)(C)C1=CC(=C(NC(=O)C/2=C/NC3=C(C=CC=C3)C2=O)C=C1O)C(C)(C)C | 447 | 462 | 464 | 471 | 452 | 455 | 461 | 467 | 470
39 | C=CC(=O)Nc1ccc2ncnc(Nc3ccc(OCc4cccc(F)c4)c(Cl)c3)c2c1 | 355 | 368 | 355 | 404 | 404 | 404 | 370 | 400 | 383
40 | CCOC(=O)[C@@H](N)CCC(=O)N[C@@H](CSCc1ccccc1)C(=O)N[C@@H](C(=O)OCC)c1ccccc1 | 468 | 466 | 474 | 467 | 458 | 458 | 466 | 473 | 461
41 | COc1ccc(C2(C#N)CCC(C(=O)O)CC2)cc1OC1CCCC1 (configuration not stated) | 465 | 434 | 471 | 475 | 466 | 464 | 439 | 443 | 443
42 | CC(C)c1c(C(=O)Nc2ccccc2)c(-c2ccccc2)c(-c2ccc(F)cc2)n1CC[C@@H](O)C[C@@H](O)CC(=O)[O-] | 428 | 431 | 412 | 448 | 400 | 409 | 440 | 439 | 447
43 | CCN(CC)CCCC(C)Nc1nc(C)cc(Nc2ccc3nc(C)cc(N)c3c2)n1 (configuration not stated) | 464 | 470 | 468 | 461 | 464 | 469 |  |  | 
44 | Cc1cnc(Nc2ccc(CN3CCOCC3)cc2)nc1Nc1cccc([S+](=O)([O-])NC(C)(C)C)c1 |  |  |  | 299 | 300 | 292 |  |  | 
45 | C1COC(NC(C2CC2)C2CC2)=N1 | 428 | 415 | 408 | 425 | 459 | 404 |  |  | 
46 | C[N]1N=CC=C1C/2=C(\C)N(C(=O)C(=C2)/C(=O)NCC3=NC=C(C=C3)[S+](C)([O-])=O)C4=CC=CC(=C4)C(F)(F)F |  |  |  | 462 | 454 | 455 | 466 | 453 | 468
